{"source": "patent US11116819B2", "about": "“Methods and compositions for mobilizing stem cells” (President and Fellows of Harvard College, priority 2013, dated 2021)", "key": {"[1]": {"tested_on": "long term reconstituting cells (HSPC)", "assay": "Competitive transplantation of mobilized peripheral blood into lethally irradiated congenic recipients (incl. serial transplant)", "type": "in vivo, mice", "details": "for potency of mobilization with AMD3100 compared with AMD3100 alone: AMD3100 5 mg/kg plus heparin 100 U/mouse or protamine sulfate 40 mg/kg, relative frequency of engrafted donor cells, AMD3100 alone = 1; for stem cell mobilization by the agent alone: Example 3, data not shown; for mobilization of long term reconstituting cells (PB competitive transplantation, primary recipients): wild type mice, single dose heparin 100 U/mouse added to G-CSF regimen", "experimental": "Blood from animals treated with single dose AMD3100 alone (5 mg/kg) or AMD3100 plus heparin (100 U/mouse) or protamine sulfate (40 mg/kg) was used in transplantation of lethally irradiated congenic hosts and the relative frequency of engrafted donor cells is indicated. Line at 1=AMD3100 alone. Results are from 6-10 animals/group.\nHypothesizing that endogenous HSPG could be competed with by known pharmacologic HSPG, we examined whether heparin sulfate could mimic the EXT1 deletion effect on stem cell localization. Initially, this was done using a single dose of heparin sulfate (100 U/mouse) after a standard G-CSF mobilization regimen, harvesting the peripheral blood and using it to reconstitute lethally irradiated congenic recipients (FIG. 3). The primary recipients were then harvested after 4 months and used to transplant secondary lethally irradiated recipients.\nFor non-competitive BM transplantation, to create the chimeras described in FIG. 1a, one million whole BM cells from B6.SJL (CD45.1) mice were transplanted into lethally irradiated (9.5 Gy from a Cesium source 4-24 hours before transplantation) Ext1-loxP/loxP-Mx1cre (CD45.2) recipients six-to-eight weeks before pIpC administration. Neutrophil and platelet recovery assay was performed as previously described (Hoggatt et al., 2013). Briefly, 3 million mobilized PB mononuclear cells (MNC) from C57BL/6J (CD45.2) mice were transplanted into lethally irradiated B6.SJL (CD45.1) mice and followed up for at least 36 days. For transplantation without cytotoxic conditioning, 1, 4 or 8 million whole BM cells from B6.SJL mice were transplanted into Ext1-loxP/loxP-Mx1cre recipients three weeks after pIpC administration. For competitive transplantation of mobilized peripheral blood (PB), 150 ul of PB (CD45.2) was mixed with 2×10^5 congenic BM support cells and injected into lethally irradiated CD45.1 recipients. Cells were infused via lateral tail vein injection. Engraftment was monitored at 4-week intervals by FACS analysis.\n(§1) Recombinant human G-CSF (Neupogen, Filgrastrim) was administered at 125 ug/kg of TBW every 12 hours for eight consecutive injections. Heparin Sodium (APP Pharmaceuticals) was injected i.p. at a single dose of 100 U. Hirudin was used at 40 mg/kg of TBW in a single dose. Vcam1 neutralizing antibody and the corresponding isotype control (Rat IgG2a, k) were injected intravenously at 2 mg/kg of TBW every day for three doses and PB samples were obtained through retro-orbital bleeding the day following the last injection. AMD3100 was administered subcutaneously at a single dose of 5 mg/kg TBW. PB samples were obtained through retro-orbital bleeding 3 hours after the last injection of G-CSF and 1 hour after Heparin, AMD3100, or Hirudin injection."}, "[2]": {"tested_on": "CD34+ cells", "details": "cited from earlier work"}, "[3]": {"tested_on": "HSPC", "assay": "HSPC mobilization in mice (background statements, GRO-β and heparin)", "type": "in vivo", "details": "unlike G-CSF; data not shown", "experimental": "It does so acutely, mobilizing HSPC maximally by 15 minutes post infusion in mice. […] It is an excellent candidate to serve as a niche-vacating agent. We have also recently identified a novel involvement of heparan sulfate proteoglycans […] in HSC retention in the bone marrow that can be manipulated pharmacologically to induce stem cell mobilization of cells functionally distinctive from those mobilized by G-CSF. This process is one that involves the use of heparin and AMD3100 and achieves robust mobilization using approved agents that can quickly move to clinical trial."}, "[4]": {"tested_on": "HSPC", "details": "cited from earlier work"}, "[5]": {"tested_on": "circulating hematopoietic stem/progenitor cells (HSPC)", "assay": "Peripheral blood colony forming unit (CFU-C) assay of circulating progenitors after mobilization", "type": "in vivo, mice", "experimental": "as §1\nCFU assays were performed as previously described (Ferraro et al., 2011). Equal volumes of PB (50 to 200 juL depending upon the experiment) were subjected to red blood cell lysis with ammonium-chloride-potassium buffer, resuspended in 4 ml of methocult M3434 (Stem Cell Technologies), plated in 35 mm culture dishes (1 mL/dish) and cultured at 37° C. for 8 days before scoring for colony formation."}, "[6]": {"tested_on": "Vcam1", "assay": "Vcam1 protein level in CD45−Ter119−Mx1+ mesenchymal cells (flow cytometry)", "type": "in vivo, mice", "details": "heparin one hour before PB harvest vs vehicle", "experimental": "Immunophenotypic characterization of the hematopoietic and mesenchymal compartments was performed as previously described (Gurumurthy et al., 2010). For details see supplementary information. Vcam1 and Cxcl12 protein levels were evaluated with an anti-Vcam1-APC and an anti-Cxcl12-APC antibody respectively and the corresponding isotype controls (R&D Systems). All data collection was performed on an LSRII or FACS Aria II (Beckon Dickinson) and data analysis was performed with FlowJo (Treestar).\nas §1"}, "[7]": {"assay": "Peripheral WBC count (complete blood count) after mobilization", "type": "in vivo", "details": "C57BL/6J mice; heparin alone 100 U/mouse one hour before PB harvest, vs vehicle", "experimental": "as §1\nBlood counts were performed with the automatic Vetscan HM2 (Abaxis)."}, "[8]": {"tested_on": "HSPCs", "assay": "Type I diabetes-induced mobilopathy model, G-CSF mobilization with PB competitive transplantation", "type": "in vivo, mice", "details": "G-CSF alone", "source_text": "Hematopoietic stem cell transplantation remains the gold standard curative therapy for a number of hematological disorders. However, G-CSF mobilization resistance may compromise lifesaving therapy for some individuals. We therefore evaluated whether genetic or pharmacological competitive inhibition of HSPG may facilitate G-CSF-induced HSPC egress from the BM in a murine model of Type I diabetes-induced mobilopathy (Ferraro et al., 2011). […] However, the compromised response to G-CSF was fully corrected in Type I diabetic mice lacking Ext1 expression in Mx1+ mesenchymal cells (FIG. 9K).\nFor non-competitive BM transplantation, to create the chimeras described in FIG. 1a, one million whole BM cells from B6.SJL (CD45.1) mice were transplanted into lethally irradiated (9.5 Gy from a Cesium source 4-24 hours before transplantation) Ext1-loxP/loxP-Mx1cre (CD45.2) recipients six-to-eight weeks before pIpC administration. Neutrophil and platelet recovery assay was performed as previously described (Hoggatt et al., 2013). Briefly, 3 million mobilized PB mononuclear cells (MNC) from C57BL/6J (CD45.2) mice were transplanted into lethally irradiated B6.SJL (CD45.1) mice and followed up for at least 36 days. […] Engraftment was monitored at 4-week intervals by FACS analysis. […]"}}, "note": "“Also recorded” adds a separate entry of the source."}
{"molecule": "hirudin", "values": [{"measurement": "effect on G-CSF-induced HSPC mobilization (relative PB reconstitution 16 weeks post transplantation)", "setting": "[1]; hirudin 40 mg/kg single dose with G-CSF, C57BL/6J mice", "value": "did not impact G-CSF-induced HSPC mobilization"}]}
{"molecule": "c1cc(CN2CCCNCCNCCCNCC2)ccc1CN1CCCNCCNCCCNCC1", "note": "[AMD3100]", "values": [{"measurement": "patients reporting diarrhea or injection site reaction", "setting": "[2]; after Plerixafor administration", "value": "approximately 33%"}, {"measurement": "G-CSF-induced mobilization in Ext1 deficient mice (relative PB reconstitution)", "setting": "[1]; AMD3100 in combination with G-CSF vs G-CSF alone", "value": "augments G-CSF-induced mobilization"}]}
{"molecule": "GRO-β: CXCR2 agonist chemokine capable of rapidly mobilizing HSPCs", "values": [{"measurement": "changes in marrow morphology by immunohistochemistry", "setting": "[3]", "value": "not associated with changes in marrow morphology"}, {"measurement": "time of maximal HSPC mobilization post infusion", "setting": "[4]; mice", "value": 15, "unit": "min"}, {"measurement": "engraftment potential of mobilized long term repopulating HSCs compared with G-CSF", "setting": "[4]; mouse, in vivo", "value": "superior engraftment potential"}]}
{"molecule": "heparin", "values": [{"measurement": "number of circulating HSPCs as measured by CFU assays", "setting": "[5]; C57BL/6J mice, heparin alone 100 U/mouse one hour before PB harvest, vs vehicle (PBS)", "value": "modest, yet significant increase; also recorded: enhanced HSPC mobilization compared to vehicle"}, {"measurement": "AMD3100-induced mobilization (CFU) with co-administration of heparin", "setting": "[5]; heparin plus AMD3100 vs AMD3100 alone", "value": "enhances AMD3100-induced mobilization"}, {"measurement": "Vcam1 levels in Mx1+ mesenchymal cells", "setting": "[6]", "value": "does not modulate Vcam1 levels"}, {"measurement": "WBC counts", "setting": "[7]", "value": "without a significant change"}, {"measurement": "potency of mobilization with AMD3100 compared with AMD3100 alone", "setting": "[1]", "value": "enhance potency of mobilization compared with AMD3100 alone"}, {"measurement": "stem cell mobilization by the agent alone", "setting": "[1]", "value": "Neither were sufficiently effective alone"}, {"measurement": "secondary engraftment / self-renewal of mobilized cells (serial transplantation)", "setting": "[1]; heparin 100 U/mouse added to G-CSF regimen, vs G-CSF alone, secondary lethally irradiated recipients", "value": "distinctly more capable at providing secondary engraftment"}, {"measurement": "HSPC mobilization in Ext1 mutant (EXT1 KO) mice", "setting": "[1]; heparin added to G-CSF vs G-CSF alone, Ext1 mutant mice", "value": "loss of its effect"}, {"measurement": "mobilization of long term reconstituting cells (PB competitive transplantation, primary recipients)", "setting": "[1]; vs G-CSF alone", "value": "significantly enhances G-CSF induced mobilization"}, {"measurement": "mobilization of long term reconstituting cells (PB competitive transplantation, primary recipients)", "setting": "[1]; vs G-CSF alone, listed as heparin sulfate", "value": "additive mobilization of stem cells"}, {"measurement": "ability to induce mobilization on its own", "setting": "[4]; Frenette and Weiss, 2000", "value": "lack the ability to induce mobilization on its own"}]}
{"molecule": "protamine sulfate", "values": [{"measurement": "potency of mobilization with AMD3100 compared with AMD3100 alone", "setting": "[1]", "value": "enhance potency of mobilization compared with AMD3100 alone"}, {"measurement": "stem cell mobilization by the agent alone", "setting": "[1]", "value": "Neither were sufficiently effective alone"}]}
{"molecule": "G-CSF: Recombinant human G-CSF, hematopoietic growth factor used clinically to mobilize HSC and HPC (protein, UniProt P09919 31-207, looked up, filgrastim, Recombinant human G-CSF, hematopoietic growth factor used clinically to mobilize HSC and HPC) Granulocyte …: TPLGPASSLPQSFLLKCLEQVRKIQGDGAALQEKLVSECATYKLCHPEELVLLGHSLGIPWAPLSSCPSQALQLAGCLSQLHSGLFLYQGLLQALEGISPELGPTLDTLQLDVADFATTIWQQMEELGMAPALQPTQGAMPAFASAFQRRAGGVLVASHLQSFLEVSYRVLRHLAQP", "values": [{"measurement": "poor mobilization in response to G-CSF, share of normal, healthy donors", "setting": "[2]; normal, healthy donors", "value": 15, "unit": "%"}, {"measurement": "patients failing to mobilize an optimal CD34+ cell number for autologous transplantation", "setting": "[2]; patients, G-CSF mobilization", "value": "Up to 60%"}, {"measurement": "HSPC mobilization in Type I diabetic mice", "setting": "[8]", "value": "failed to efficiently mobilize HSPCs"}]}
